Measured values as given in publication PMC8508374, “In Silico Identification and Evaluation of Natural Products as Potential Tumor Necrosis Factor Function Inhibitors Using Advanced Enalos Asclepios KNIME Nodes” (International Journal of Molecular Sciences, 2021).

Target: T1, TNF (TNF-TNFR1 binding) (Homo sapiens, UniProt P01375)
T1 construct: soluble TNF and its receptor TNFR1 in sandwich ELISA; human TNF-alpha (Peprotech) is printed for the cell assays; with Tumor necrosis factor receptor superfamily member 1A
Assay: TNF-TNFR1 sandwich ELISA, inhibition of binding
Details: inhibition of TNF-TNFR1 interaction

T1 sequence (P01375 77-233): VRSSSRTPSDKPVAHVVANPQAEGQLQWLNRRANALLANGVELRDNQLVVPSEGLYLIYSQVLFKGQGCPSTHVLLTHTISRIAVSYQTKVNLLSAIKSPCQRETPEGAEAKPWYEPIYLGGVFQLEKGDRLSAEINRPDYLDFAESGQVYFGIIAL
T1 sequence (P19438 30-455 partner): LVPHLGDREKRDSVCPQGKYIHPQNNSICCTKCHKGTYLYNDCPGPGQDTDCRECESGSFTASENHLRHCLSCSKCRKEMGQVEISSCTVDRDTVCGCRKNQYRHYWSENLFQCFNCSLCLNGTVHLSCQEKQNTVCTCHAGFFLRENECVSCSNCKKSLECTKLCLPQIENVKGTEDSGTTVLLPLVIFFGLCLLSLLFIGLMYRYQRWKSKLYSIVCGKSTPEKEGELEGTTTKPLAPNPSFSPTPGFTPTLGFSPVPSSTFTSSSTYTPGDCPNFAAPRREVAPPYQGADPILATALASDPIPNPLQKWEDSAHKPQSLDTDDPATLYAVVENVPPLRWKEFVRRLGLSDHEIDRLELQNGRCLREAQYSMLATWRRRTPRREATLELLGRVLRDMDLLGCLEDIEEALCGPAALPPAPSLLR

**Q.** Oc1ccc([C@@H]2c3c(O)cc4c(c3C3C2c2c(c(O)cc5c2[C@H](c2cc(O)cc(O)c2)[C@@H](c2ccc(O)cc2)O5)[C@H]3c2ccccc2)[C@H](c2cc(O)cc(O)c2)[C@@H](c2ccc(O)cc2)C4)cc1 (stereo partly shown) [Nepalensinol B] was tested. Which IC50 did it give?
**A.** 90.2 ± 19 µM
